Measurements taken from PubChem BioAssay AID248 (DTP/NCI, 2004).
“And” between values parts separate entries of the source, which are not always exact repeats. Identical values can stand only once. Inconclusive results and toxic doses are left out.

Test system: L1210 leukemia ip in BDF1 mice, survival T/C
Experiment: NCI In Vivo Anticancer Drug Screen. Data for tumor model L1210 Leukemia (intraperitoneal) in B6D2F1 (BDF1) mice
Conditions: endpoint: mean survival time, higher = longer survival
In short: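 Tumor cells were implanted, animals were treated, and survival was followed. The result divides the treated measurement by the vehicle-control measurement.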

[1] = dose: 50.0 mg/kg/injection, schedule: Q01DX001 (ip), vehicle: saline
[2] = dose: 100.0 mg/kg/injection, schedule: Q01DX001 (ip), vehicle: saline
[3] = dose: 200.0 mg/kg/injection, schedule: Q01DX001 (ip), vehicle: saline
[4] = dose: 400.0 mg/kg/injection, schedule: Q01DX001 (ip), vehicle: saline
[5] = dose: 100.0 mg/kg/injection, schedule: Q01DX009 (ip), vehicle: Klucel (hydroxypropylcellulose) (HPC)
[6] = dose: 200.0 mg/kg/injection, schedule: Q01DX009 (ip), vehicle: Klucel (hydroxypropylcellulose) (HPC)
[7] = dose: 100.0 mg/kg/injection, schedule: Q01DX009 (ip), vehicle: other
[8] = dose: 100.0 mg/kg/injection, schedule: Q04DX003 (ip), vehicle: saline with Tween-80
[9] = dose: 200.0 mg/kg/injection, schedule: Q04DX003 (ip), vehicle: saline with Tween-80

Cn1nc(N)c2nccnc21
T/C (dose: 50.0 mg/kg/injection, schedule: Q01DX009 (ip), vehicle: saline): 98 % of control
T/C (dose: 100.0 mg/kg/injection, schedule: Q01DX009 (ip), vehicle: saline): 104 % of control
T/C (dose: 100.0 mg/kg/injection, schedule: Q04DX003 (ip), vehicle: alcohol): 100 % of control
T/C (dose: 200.0 mg/kg/injection, schedule: Q04DX003 (ip), vehicle: alcohol): 98 % of control

Cc1ccc(SCCCN)cc1
T/C (dose: 75.0 mg/kg/injection, schedule: Q01DX001 (ip), vehicle: saline): 100 % of control
T/C (dose: 150.0 mg/kg/injection, schedule: Q01DX001 (ip), vehicle: saline): 94 % of control

C[n+]1cc(N)cc2ccccc21
T/C (dose: 10.0 mg/kg/injection, schedule: Q01DX001 (ip), vehicle: other): 105 % of control
T/C (dose: 20.0 mg/kg/injection, schedule: Q01DX001 (ip), vehicle: other): 105 % of control
T/C (dose: 40.0 mg/kg/injection, schedule: Q01DX001 (ip), vehicle: other): 109 % of control

O=C(CCCC(=O)N/N=C/c1ccc(-c2ccccc2)cc1)N/N=C\c1ccc(-c2ccccc2)cc1
T/C [1]: 96 % of control
T/C [2]: 98 % of control
T/C [3]: 96 % of control
T/C [4]: 96 % of control

O=NN(CCF)C(=O)NCCF
T/C (dose: 1.25 mg/kg/injection, schedule: Q01DX001 (ip), vehicle: saline): 113 % of control
T/C (dose: 1.75 mg/kg/injection, schedule: Q01DX001 (ip), vehicle: saline): 118 % of control
T/C (dose: 2.0 mg/kg/injection, schedule: Q01DX001 (ip), vehicle: saline): 116 % of control
T/C (dose: 2.5 mg/kg/injection, schedule: Q01DX001 (ip), vehicle: saline): 118 % of control
T/C (dose: 3.5 mg/kg/injection, schedule: Q01DX001 (ip), vehicle: saline): 161 % of control
T/C (dose: 5.0 mg/kg/injection, schedule: Q01DX001 (ip), vehicle: saline): 156 % of control
T/C (dose: 6.0 mg/kg/injection, schedule: Q01DX001 (ip), vehicle: saline): 242 % of control
T/C (dose: 7.0 mg/kg/injection, schedule: Q01DX001 (ip), vehicle: saline): 316 % of control
T/C (dose: 8.0 mg/kg/injection, schedule: Q01DX001 (ip), vehicle: saline): 201 % of control
T/C (dose: 12.0 mg/kg/injection, schedule: Q01DX001 (ip), vehicle: saline): 312 % of control and 333 % of control
T/C (dose: 18.0 mg/kg/injection, schedule: Q01DX001 (ip), vehicle: saline): 322 % of control

Cc1[nH]c2ccccc2c1C
T/C [5]: 104 % of control
T/C [6]: 87 % of control

O=C1OC(=O)c2ccc(S)c3cccc1c23
T/C (dose: 50.0 mg/kg/injection, schedule: Q01DX009 (ip), vehicle: saline with Tween-80): 96 % of control
T/C (dose: 100.0 mg/kg/injection, schedule: Q01DX009 (ip), vehicle: saline with Tween-80): 102 % of control
T/C (dose: 200.0 mg/kg/injection, schedule: Q01DX009 (ip), vehicle: saline with Tween-80): 94 % of control and 101 % of control

O/N=C1\c2ccccc2-c2ccc(Cl)cc21
T/C (dose: 100.0 mg/kg/injection, schedule: Q01DX001 (ip), vehicle: carboxymethylcellulose (CMC)): 95 % of control
T/C (dose: 200.0 mg/kg/injection, schedule: Q01DX001 (ip), vehicle: carboxymethylcellulose (CMC)): 111 % of control
T/C (dose: 400.0 mg/kg/injection, schedule: Q01DX001 (ip), vehicle: carboxymethylcellulose (CMC)): 97 % of control

CC(=O)Oc1ccc(/C=C/c2ccncc2)cc1
T/C [5]: 97 % of control
T/C [6]: 100 % of control
T/C (dose: 400.0 mg/kg/injection, schedule: Q01DX009 (ip), vehicle: Klucel (hydroxypropylcellulose) (HPC)): 104 % of control

O=C(NCCCOc1ccc([N+](=O)[O-])cc1Cl)Nc1ccc(S(=O)(=O)F)cc1
T/C (dose: 75.0 mg/kg/injection, schedule: Q01DX001 (ip), vehicle: carboxymethylcellulose (CMC)): 98 % of control
T/C (dose: 100.0 mg/kg/injection, schedule: Q04DX003 (ip), vehicle: saline): 103 % of control
T/C (dose: 150.0 mg/kg/injection, schedule: Q01DX001 (ip), vehicle: carboxymethylcellulose (CMC)): 89 % of control
T/C (dose: 200.0 mg/kg/injection, schedule: Q04DX003 (ip), vehicle: saline): 103 % of control
T/C (dose: 300.0 mg/kg/injection, schedule: Q01DX001 (ip), vehicle: carboxymethylcellulose (CMC)): 87 % of control
T/C (dose: 400.0 mg/kg/injection, schedule: Q04DX003 (ip), vehicle: saline): 105 % of control

FC(F)(F)C(c1ccc(Cl)cc1)c1ccc(Cl)cc1
T/C (dose: 10.0 mg/kg/injection, schedule: Q01DX009 (ip), vehicle: saline with Tween-80): 105 % of control
T/C (dose: 20.0 mg/kg/injection, schedule: Q01DX009 (ip), vehicle: saline with Tween-80): 89 % of control
T/C (dose: 40.0 mg/kg/injection, schedule: Q01DX009 (ip), vehicle: saline with Tween-80): 97 % of control
T/C [1]: 103 % of control
T/C [2]: 97 % of control
T/C [7]: 97 % of control
T/C [8]: 103 % of control
T/C [3]: 97 % of control
T/C [9]: 102 % of control
T/C [4]: 103 % of control
T/C (dose: 400.0 mg/kg/injection, schedule: Q04DX003 (ip), vehicle: saline with Tween-80): 100 % of control

CN/N=C/c1ccc([N+](=O)[O-])o1
T/C [8]: 97 % of control
T/C [9]: 88 % of control

CCc1ccc2c(OC(C)=O)c3ccccc3c(OC(C)=O)c2c1
T/C (dose: 100.0 mg/kg/injection, schedule: Q01DX001 (ip), vehicle: saline with Tween-80): 95 % of control
T/C (dose: 200.0 mg/kg/injection, schedule: Q01DX001 (ip), vehicle: saline with Tween-80): 95 % of control
T/C (dose: 400.0 mg/kg/injection, schedule: Q01DX001 (ip), vehicle: saline with Tween-80): 93 % of control

COC1CCC(/C(C#N)=C/C2CCC3OCOC3C2)CC1 (centres undefined)
T/C (dose: 100.0 mg/kg/injection, schedule: Q04DX002 (ip), vehicle: saline with Tween-80): 101 % of control
T/C (dose: 200.0 mg/kg/injection, schedule: Q04DX002 (ip), vehicle: saline with Tween-80): 90 % of control
T/C (dose: 400.0 mg/kg/injection, schedule: Q04DX002 (ip), vehicle: saline with Tween-80): 94 % of control

COc1cc2c(cc1OC(C)=O)C=CCCC2=O
T/C [7]: 97 % of control
T/C (dose: 100.0 mg/kg/injection, schedule: Q04DX003 (ip), vehicle: other): 105 % of control
T/C (dose: 200.0 mg/kg/injection, schedule: Q01DX009 (ip), vehicle: other): 90 % of control
T/C (dose: 200.0 mg/kg/injection, schedule: Q04DX003 (ip), vehicle: other): 105 % of control
T/C (dose: 400.0 mg/kg/injection, schedule: Q01DX009 (ip), vehicle: other): 97 % of control
T/C (dose: 400.0 mg/kg/injection, schedule: Q04DX003 (ip), vehicle: other): 104 % of control

COC(=O)C(Cc1ccc(N(CCCl)CCCl)cc1)N=NNc1[nH]ncc1C(N)=O (centres undefined)
T/C (dose: 19.0 mg/kg/injection, schedule: Q01DX001 (ip), vehicle: other): 106 % of control
T/C (dose: 38.0 mg/kg/injection, schedule: Q01DX001 (ip), vehicle: other): 124 % of control
T/C (dose: 75.0 mg/kg/injection, schedule: Q01DX001 (ip), vehicle: other): 100 % of control
T/C (dose: 150.0 mg/kg/injection, schedule: Q01DX001 (ip), vehicle: other): 155 % of control
T/C (dose: 300.0 mg/kg/injection, schedule: Q01DX001 (ip), vehicle: other): 117 % of control

O=C(c1ccc(Cl)cc1)c1cccc[n+]1Cc1ccccc1
T/C (dose: 12.5 mg/kg/injection, schedule: Q04DX003 (ip), vehicle: Klucel (hydroxypropylcellulose) (HPC)): 102 % of control
T/C (dose: 25.0 mg/kg/injection, schedule: Q01DX009 (ip), vehicle: Klucel (hydroxypropylcellulose) (HPC)): 103 % of control
T/C (dose: 25.0 mg/kg/injection, schedule: Q04DX003 (ip), vehicle: Klucel (hydroxypropylcellulose) (HPC)): 101 % of control
T/C (dose: 50.0 mg/kg/injection, schedule: Q01DX009 (ip), vehicle: Klucel (hydroxypropylcellulose) (HPC)): 103 % of control
T/C (dose: 50.0 mg/kg/injection, schedule: Q04DX003 (ip), vehicle: Klucel (hydroxypropylcellulose) (HPC)): 94 % of control
T/C [5]: 119 % of control
T/C (dose: 100.0 mg/kg/injection, schedule: Q04DX003 (ip), vehicle: Klucel (hydroxypropylcellulose) (HPC)): 97 % of control

CN(C)CCNc1cc([N+](=O)[O-])ccc1[N+](=O)[O-]
T/C [2]: 105 % of control
